Assay results from ChEMBL document CHEMBL4382198, “Discovery of Risdiplam, a Selective Survival of Motor Neuron-2 ( SMN2) Gene Splicing Modifier for the Treatment of Spinal Muscular Atrophy (SMA)” (J Med Chem, 2018).

What was measured:
[1] = Effect on human FOXM1b/c mRNA splicing expressed in human SMA-derived fibroblasts by RT-qPCR analysis; type: ADME
[2] = Drug metabolism in po dosed rat plasma assessed as dealkylated 2-(4-ethyl-6-methylpyrazolo[1,5-a]pyrazin-2-yl)-9-methyl-7-(piperidin-4-yl)-4H-pyrido[1,2-a]pyrimidin-4-one metabolite formation; type: ADME, organism-based; conditions: in vivo
[3] = Drug metabolism in po dosed mouse plasma assessed as dealkylated 2-(4-ethyl-6-methylpyrazolo[1,5-a]pyrazin-2-yl)-9-methyl-7-(piperidin-4-yl)-4H-pyrido[1,2-a]pyrimidin-4-one metabolite formation; type: ADME, organism-based; conditions: in vivo
[4] = Efflux ratio of permeability in human SMA-derived fibroblasts; type: ADME, cell-based, Fibroblast; conditions: not told
[5] = Drug metabolism in po dosed cynomolgus monkey plasma assessed as dealkylated 2-(4-ethyl-6-methylpyrazolo[1,5-a]pyrazin-2-yl)-9-methyl-7-(piperidin-4-yl)-4H-pyrido[1,2-a]pyrimidin-4-one metabolite formation; type: ADME, organism-based, Macaca fascicularis; conditions: in vivo
Homo sapiens [6] = species: Homo sapiens; assay: Activation of human full length SMN2 mRNA expressed in human SMA-derived fibroblasts by RT-qPCR analysis
[7] = Efflux ratio of permeability in mouse 3T3 cells; type: ADME, cell-based, NIH3T3
[8] = Tmax in human; type: ADME
[9] = Terminal half life in human; type: ADME; conditions: read-out: beta t1/2 (converted)
Homo sapiens [10] = species: Homo sapiens; assay: Modulation of human SMN2 mRNAsplicing expressed in HEK293H cells by qRT-PCR analysis; type: cell-based
[11] = Effect on human FOXM1a mRNA splicing expressed in human SMA-derived fibroblasts by RT-qPCR analysis; type: ADME
[12] = Effect on FOXM1b/c mRNA splicing in human induced pluripotent stem cells by RT-qPCR analysis; type: ADME
[13] = Effect on FOXM1b/c mRNA splicing in cynomolgus monkey induced pluripotent stem cells by RT-qPCR analysis; type: ADME, Macaca fascicularis
[14] = target: Voltage-gated inwardly rectifying potassium channel KCNH2 (Homo sapiens, UniProt Q12809); assay: (§1) Inhibition of human ERG at 37 degC
Voltage-gated inwardly rectifying potassium channel KCNH2, sequence (Q12809 whole entry): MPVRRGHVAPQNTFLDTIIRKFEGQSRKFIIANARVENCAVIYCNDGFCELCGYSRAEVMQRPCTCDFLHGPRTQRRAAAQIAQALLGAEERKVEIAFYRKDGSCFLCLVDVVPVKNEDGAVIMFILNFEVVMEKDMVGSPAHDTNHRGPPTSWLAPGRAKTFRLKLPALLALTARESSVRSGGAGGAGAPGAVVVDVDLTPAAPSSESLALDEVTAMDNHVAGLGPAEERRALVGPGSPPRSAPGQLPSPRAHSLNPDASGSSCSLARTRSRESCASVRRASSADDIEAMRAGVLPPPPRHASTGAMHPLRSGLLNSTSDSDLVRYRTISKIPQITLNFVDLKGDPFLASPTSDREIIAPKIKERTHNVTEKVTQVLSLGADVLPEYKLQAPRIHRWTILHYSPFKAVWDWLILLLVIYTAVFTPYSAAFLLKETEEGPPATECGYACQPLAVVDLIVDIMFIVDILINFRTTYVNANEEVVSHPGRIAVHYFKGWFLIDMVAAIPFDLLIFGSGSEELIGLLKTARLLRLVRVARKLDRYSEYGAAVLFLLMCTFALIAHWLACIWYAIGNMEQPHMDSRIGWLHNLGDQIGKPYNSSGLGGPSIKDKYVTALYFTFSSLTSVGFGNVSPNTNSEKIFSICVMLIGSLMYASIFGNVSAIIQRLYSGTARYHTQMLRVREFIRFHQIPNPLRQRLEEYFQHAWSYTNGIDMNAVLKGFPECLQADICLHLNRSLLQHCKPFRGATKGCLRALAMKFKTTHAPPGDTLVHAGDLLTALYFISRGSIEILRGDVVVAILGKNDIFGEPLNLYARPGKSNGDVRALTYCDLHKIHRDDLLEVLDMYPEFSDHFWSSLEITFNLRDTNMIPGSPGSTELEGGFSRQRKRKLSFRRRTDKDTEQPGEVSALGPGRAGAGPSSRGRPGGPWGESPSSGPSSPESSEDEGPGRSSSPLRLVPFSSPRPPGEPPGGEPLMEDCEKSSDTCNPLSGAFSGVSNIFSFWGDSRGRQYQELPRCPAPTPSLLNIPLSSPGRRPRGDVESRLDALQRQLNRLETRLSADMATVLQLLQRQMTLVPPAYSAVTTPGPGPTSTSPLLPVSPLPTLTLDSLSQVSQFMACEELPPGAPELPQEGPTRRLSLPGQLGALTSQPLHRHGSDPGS

hERG (KCNH2) = hERG (KCNH2) (Homo sapiens, UniProt Q12809); assay: as §1; conditions: human
hERG (KCNH2), sequence (Q12809 whole entry): as above

[15] = Cardiotoxicity in cynomolgus monkey assessed as prolongation of QTc interval time; type: toxicity, Macaca fascicularis
NIH3T3 = assay: Phototoxicity in mouse 3T3 cells assessed as decrease in cell viability in presence of UV light by neutral red uptake assay; type: cell-based; conditions: NIH3T3, light or radiation study
[16] = Dark toxicity in mouse 3T3 cells assessed as decrease in cell viability by neutral red uptake assay; type: cell-based, NIH3T3
[17] = Volume of distribution at steady state in cynomolgus monkey; type: ADME, Macaca fascicularis; conditions: in vivo, read-out: Vdss
[18] = Terminal half life in rat; type: ADME; conditions: in vivo, read-out: beta t1/2 (converted)
[19] = Terminal half life in cynomolgus monkey; type: ADME, Macaca fascicularis; conditions: in vivo, read-out: beta t1/2 (converted)
[20] = Drug metabolism in human plasma assessed as dealkylated 2-(4-ethyl-6-methylpyrazolo[1,5-a]pyrazin-2-yl)-9-methyl-7-(piperidin-4-yl)-4H-pyrido[1,2-a]pyrimidin-4-one metabolite formation; type: ADME, cell-free
[21] = Drug metabolism in rat plasma assessed as dealkylated 2-(4-ethyl-6-methylpyrazolo[1,5-a]pyrazin-2-yl)-9-methyl-7-(piperidin-4-yl)-4H-pyrido[1,2-a]pyrimidin-4-one metabolite formation; type: ADME, cell-free
[22] = Drug metabolism in dog plasma assessed as dealkylated 2-(4-ethyl-6-methylpyrazolo[1,5-a]pyrazin-2-yl)-9-methyl-7-(piperidin-4-yl)-4H-pyrido[1,2-a]pyrimidin-4-one metabolite formation; type: ADME, cell-free, Canis lupus familiaris
[23] = Drug metabolism in pig plasma assessed as dealkylated 2-(4-ethyl-6-methylpyrazolo[1,5-a]pyrazin-2-yl)-9-methyl-7-(piperidin-4-yl)-4H-pyrido[1,2-a]pyrimidin-4-one metabolite formation; type: ADME, cell-free, Sus scrofa
[24] = Drug metabolism in cynomolgus monkey plasma assessed as dealkylated 2-(4-ethyl-6-methylpyrazolo[1,5-a]pyrazin-2-yl)-9-methyl-7-(piperidin-4-yl)-4H-pyrido[1,2-a]pyrimidin-4-one metabolite formation; type: ADME, cell-free, Macaca fascicularis
[25] = Drug metabolism in mouse plasma assessed as dealkylated 2-(4-ethyl-6-methylpyrazolo[1,5-a]pyrazin-2-yl)-9-methyl-7-(piperidin-4-yl)-4H-pyrido[1,2-a]pyrimidin-4-one metabolite formation; type: ADME, cell-free
[26] = Drug metabolism in rabbit plasma assessed as dealkylated 2-(4-ethyl-6-methylpyrazolo[1,5-a]pyrazin-2-yl)-9-methyl-7-(piperidin-4-yl)-4H-pyrido[1,2-a]pyrimidin-4-one metabolite formation; type: ADME, cell-free, Oryctolagus cuniculus
[27] = Lipophilicity, log D of the compound at pH 7.4; type: physicochemical; conditions: buffer
[28] = Clearance in rat at 2 mg/kg, iv administered as single dose; type: ADME, organism-based; conditions: in vivo
[29] = Volume of distribution at steady state in rat at 2 mg/kg, iv administered as single dose; type: ADME, organism-based; conditions: in vivo, read-out: Vdss
[30] = Half life in rat at 5 mg/kg, po administered as single dose; type: ADME, organism-based; conditions: in vivo
[31] = Oral bioavailability in rat at 5 mg/kg administered as single dose; type: ADME, organism-based; conditions: in vivo
[32] = Half life in cynomolgus monkey at 1.3 mg/kg, po administered as single dose; type: ADME, organism-based, Macaca fascicularis; conditions: in vivo
[33] = Oral bioavailability in cynomolgus monkey at 1.3 mg/kg administered as single dose; type: ADME, organism-based, Macaca fascicularis; conditions: in vivo
Mus musculus [34] = assay: In-vivo stabilization of SMN2 mRNA in SMA neonatal delta7 mouse model assessed as increase in free SMN protein levels by measuring free AUC (0 to 42 hrs) at 1 mg/kg, ip dosed once daily starting from postnatal day 3 to postnatal day 9; type: functional
Mus musculus [35] = assay: In-vivo stabilization of SMN2 mRNA in SMA neonatal delta7 mouse model assessed as increase in free SMN protein levels by measuring free AUC (0 to 42 hrs) at 3 mg/kg, ip dosed once daily starting from postnatal day 3 to postnatal day 9; type: functional
[36] = target: Survival motor neuron protein (Homo sapiens) (UniProt Q16637); assay: Activation of SMN protein in human SMA-derived fibroblasts after 48 hrs by HTRF assay
Survival motor neuron protein (Homo sapiens), sequence (Q16637 whole entry): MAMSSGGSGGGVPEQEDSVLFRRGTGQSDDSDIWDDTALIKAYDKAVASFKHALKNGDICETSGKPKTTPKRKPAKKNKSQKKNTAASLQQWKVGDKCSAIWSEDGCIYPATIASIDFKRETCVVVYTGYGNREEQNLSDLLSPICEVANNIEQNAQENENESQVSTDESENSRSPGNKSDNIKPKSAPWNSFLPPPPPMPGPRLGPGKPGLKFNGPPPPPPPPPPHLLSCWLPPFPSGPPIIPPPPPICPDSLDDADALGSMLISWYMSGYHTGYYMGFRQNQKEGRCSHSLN

[37] = Stabilization of human MADD mRNA splicing expressed in human SMA-derived fibroblasts at 131 to 655 nM by RT-qPCR analysis; type: ADME; conditions: 0.655 µM
[38] = Stabilization of human APLP2 mRNA splicing expressed in human SMA-derived fibroblasts at 131 to 655 nM by RT-qPCR analysis; type: ADME; conditions: 0.655 µM
[39] = Stabilization of human […] mRNA splicing expressed in human SMA-derived fibroblasts at 131 to 655 nM by RT-qPCR analysis; type: ADME; conditions: 0.655 µM
[40] = Stabilization of human STRN3 mRNA splicing expressed in human SMA-derived fibroblasts at 131 to 655 nM by RT-qPCR analysis; type: ADME; conditions: 0.655 µM
[41] = Chronic toxicity in retina of po dosed cynomolgus monkey assessed as multifocal peripheral retina degeneration after 39 weeks by OCT analysis; type: organism-based, Macaca fascicularis; conditions: in vivo, 6552 h
[42] = Chronic toxicity in retina of po dosed cynomolgus monkey assessed as formation of microcystic spaces in the inner retinal layers after 39 weeks by OCT analysis; type: organism-based, Macaca fascicularis; conditions: in vivo, 6552 h
[43] = Chronic toxicity in retina of po dosed cynomolgus monkey assessed as formation of scotopic depressed B-waves after 39 weeks by ERG analysis; type: organism-based, Macaca fascicularis; conditions: in vivo, 6552 h
[44] = Chronic toxicity in retina of po dosed cynomolgus monkey assessed as effect on outer nuclear layers after 39 weeks by histological analysis; type: organism-based, Macaca fascicularis; conditions: in vivo, 6552 h
[45] = Chronic toxicity in retina of po dosed cynomolgus monkey assessed as effect on photo-receptor layers after 39 weeks by histological analysis; type: organism-based, Macaca fascicularis; conditions: in vivo, 6552 h
[46] = Chronic toxicity in retina of po dosed cynomolgus monkey assessed as excess vacuolation of inner nuclear layer after 39 weeks by histological analysis; type: organism-based, Macaca fascicularis; conditions: in vivo, 6552 h
[47] = Chronic toxicity in retina of po dosed cynomolgus monkey assessed as RPE hypertrophy 39 weeks by histological analysis; type: organism-based, Macaca fascicularis; conditions: in vivo, 6552 h
in vivo = conditions: rat

In the case of `CCc1nc(C)cn2nc(C3=CC(=O)N4C=C(C5CCNCC5)C=C(C)C4N3)cc12` (stereo unspecified), the EC50 [1] is reported as 23 nM, the Drug metabolism [2] is reported as “<= 9 %ID” and the Drug metabolism [3] is reported as “<= 9 %ID”. For the same compound, the efflux ratio [4] was 18.7, the Drug metabolism [5] was “<= 9 %ID” and the EC1.5 (Homo sapiens [6]) was under 2 nM. It also gave an efflux ratio [7] of 20.
Work on `CCc1nc(C)cn2nc(-c3cc(=O)n4cc(C5CCN(C)CC5)cc(C)c4n3)cc12` yielded a Tmax [8] of 5 to 8 h, a half-life [9] of 120 h and an EC1.5 (Homo sapiens [10]) of 23 nM. For the same compound, the EC50 [11] was 247 nM, the EC50 [1] was 352 nM and the IC50 ([12]; Homo sapiens) was 1850 nM. The IC50 ([13]; Macaca fascicularis) was 900 nM, the IC50 [14] was 1800 nM and the IC20 (hERG (KCNH2)) was 500 nM. For the same compound, the Time [15] was 10 ms, the IC50 (NIH3T3) was 330 nM and the IC50 [16] was over 10000 nM. It also gave a Vd [17] of 20 to 30 L/kg, a half-life [18] of 19 h and a half-life [19] of 42 h. For the same compound, the Drug metabolism [20] was “Metabolite_Detected”, the Drug metabolism [21] was “Metabolite_Detected” and the Drug metabolism [22] was “Metabolite_Detected”. The Drug metabolism [23] was “Metabolite_Detected”, the Drug metabolism [24] was “Metabolite_Detected” and the Drug metabolism [25] was “Metabolite_Detected”. For the same compound, the Drug metabolism [26] was “Metabolite_Detected”, the efflux ratio [4] was 2 and the logD [27] was 2.3. It also gave a clearance [28] of 25 mL/min/kg, a Vd [29] of 29 L/kg and a half-life [30] of 19 h. The bioavailability [31] was 100%, the half-life [32] was 42 h and the bioavailability [33] was 52%. It also gave a fAUC (Mus musculus [34]) of 73 ng·h/mL, a fAUC (Mus musculus [35]) of 118 ng·h/mL and an EC1.5 [36] of 87 nM. For the same compound, the Activity [37] was “Non-Toxic”, the Activity [38] was “Non-Toxic” and the Activity [39] was “Non-Toxic”. For the same compound, the Activity [40] was “Non-Toxic”, the Activity [41] was “Toxic” and the Activity [42] was “Toxic”. The Activity [43] was “Toxic”, the Activity [44] was “Toxic” and the Activity [45] was “Toxic”. The Activity [46] was “Toxic”, the Activity [47] was “Toxic” and the Vd (in vivo) was 20 to 30 L/kg. The pKa (physchem) was 10.9.
In the case of `Cc1cn2cc(-c3cc(=O)n4cc(N5CCC(N6CCCC6)CC5)ccc4n3)cc(C(F)(F)F)c2n1`, the Vd (in vivo) is reported as 18 L/kg and the pKa (physchem) is reported as 9.3.
For `CCc1nc(C)cn2nc(-c3cc(=O)n4cc(N5CCN6CCC[C@@H]6C5)ccc4n3)cc12`, the Vd (in vivo) was 7 L/kg and the pKa (physchem) was 7.6.
`Cc1cn2cc(-c3cc(=O)n4cc(N5CCN6CCC[C@H]6C5)ccc4n3)cc(C)c2n1` showed a Vd (in vivo) of 15 L/kg and a pKa (physchem) of 8.6.
`CCc1nc(C)cn2nc(-c3cc(=O)n4cc(N5CCN6CCC[C@]6(C)C5)ccc4n3)cc12` showed a Vd (in vivo) of 15 L/kg and a pKa (physchem) of 8.4.
With `Cc1cn2nc(-c3cc(=O)n4cc(N5CCN(O)C6(CC6)C5)ccc4n3)cc(C)c2n1` the Activity ([12]; human) was “Non-Toxic” and the Activity ([13]; cynomolgus monkey) was “Non-Toxic”.
In the case of `CCc1nc(C)cn2nc(-c3cc(=O)n4cc(N5CCN6CCC[C@H]6C5)ccc4n3)cc12`, the EC1.5 (Homo sapiens [6]) is reported as 40 nM and the EC1.5 [36] is reported as 163 nM.
In the case of `Cc1cn2cc(-c3cc(=O)n4cc(N5CCN6CCC[C@H]6C5)ccc4n3)cc(C(F)(F)F)c2n1`, the Vd (in vivo) is reported as 7 L/kg and the pKa (physchem) is reported as 7.3.
For `Cc1cn2nc(-c3cc(=O)n4cc(N5CCN6CCC[C@H]6C5)ccc4n3)ccc2n1`, the EC1.5 (Homo sapiens [6]) was 3 nM and the EC1.5 [36] was 20 nM.
Compound `Cc1cn2nc(-c3cc(=O)n4cc(N5CCN6CCC[C@H]6C5)ccc4n3)cc(C)c2n1` has an EC1.5 (Homo sapiens [6]) of 2 nM and an EC1.5 [36] of 22 nM.
With `Cc1cn2cc(-c3cc(=O)n4cc(N5CCN(C)CC5)ccc4n3)cc(F)c2n1` the Vd (in vivo) was 5 L/kg and the pKa (physchem) was 7.2.
For `Cc1cn2cc(-c3cc(=O)n4cc(N5CCN6CCC[C@@]6(C)C5)ccc4n3)cc(C(F)(F)F)c2n1`, the Vd (in vivo) was 9 L/kg and the pKa (physchem) was 8.4.
Work on `CCc1nc(C)cn2cc(-c3cc(=O)n4cc(N5CCC(N6CCC6)CC5)cc(C)c4n3)cc12` yielded a Vd (in vivo) of 20 L/kg and a pKa (physchem) of 8.9.
For `CCc1nc(C)cn2nc(-c3cc(=O)n4cc(C5CCN(CC)CC5)cc(C)c4n3)cc12`, the Vd (in vivo) was 20 L/kg and the pKa (physchem) was 9.1.
Work on `Cc1nc2c(F)cc(-c3cc(=O)n4cc(N5CCN6CCC[C@H]6C5)ccc4n3)cc2o1` yielded a Vd (in vivo) of 4 L/kg and a pKa (physchem) of 7.5.
